Broadly, the LogP is a log measure of how a compound divides between an organic and an aqueous phase. Read a low LogP as lower lipophilicity. As a reminder, the chromatographic logP is lipophilicity estimated from chromatographic retention. Low readings indicate a more hydrophilic compound, high ones a more lipophilic compound.

Among the data in US8119645B2, “Fungicide hydroximoyl-tetrazole derivatives” (Bayer Cropscience AG, priority 2006, dated 2012) are LogP and chromatographic logP values, retold here.

A short description of this data set: logP by reversed-phase HPLC (EEC Directive 79/831 Annex V.A8). The following applies: for LogP: HPLC C18, 40° C., 0.1% aqueous formic acid / acetonitrile gradient. The data set is classed as physicochemical.

Protocol: Temperature: 40° C.; Mobile phases: 0.1% aqueous formic acid and acetonitrile; linear gradient from 10% acetonitrile to 90% acetonitrile.

`CCCCCCCCNC(=O)Nc1nc(CON=C(c2ccsc2)n2nnnc2C)cs1` [Compound 23] returned a LogP of 3.26.
On the same count and under the same terms, in the case of `C=CCC(=O)Nc1nc(CON=C(c2ccsc2Cl)n2nnnc2C)cs1` [Compound 6] it was 2.73.
The same measure, in the same setting: in the case of `Cc1nnnn1C(=NOCc1csc(NC(=O)CCCCl)n1)c1ccsc1Cl` [Compound 5] it was 3; in that of `Cc1nnnn1C(=NOCc1csc(NC(=O)COCc2ccccc2)n1)c1ccc(Br)s1` [Compound 95], 3.76; in that of `Cc1nnnn1C(=NOCc1csc(NC(=O)CCc2ccccc2)n1)c1ccc(Cl)s1` [Compound 108], 3.85.
The same measure, in the same setting: next, `Cc1ccc(C(=NOCc2csc(NC(=O)NCc3ccccc3)n2)n2nnnc2C)s1` [Compound 117]: 3.17; `CCCCCOC(=O)Nc1cccc(CON=C(c2ccc(C)s2)n2nnnc2C)n1` [Compound 126]: 4.34; `Cc1ccc(C(=NOCc2csc(NC(=O)C3CCCC3)n2)n2nnnc2C)o1` [Compound 62]: 2.98.
Consider `CCCCCCCCC(=O)Nc1nc(CON=C(c2ccc(-c3ccccc3)o2)n2nnnc2C)cs1` [Compound 135], for which the LogP came out at 5.01.
As for `Cc1nnnn1C(=NOCc1csc(NC(=O)CCCc2ccccc2)n1)c1ccsc1` [Compound 45], the LogP is 3.49.
Still for that read-out and setting: next, `Cc1nnnn1C(=NOCc1csc(NC(=O)C(C)(C)C)n1)c1ccc(Cl)s1` [Compound 102]: 3.73.
Same read-out and setting: in the case of `COCCOC(=O)Nc1nc(CON=C(c2ccsc2)n2nnnc2C)cs1` [Compound 49] it was 2.3.
Same read-out and setting: next, `Cc1nnnn1C(=NOCc1cccc(N)n1)c1ccsc1` [Compound 19]: 1.28; `Cc1ccc(C(=NOCc2csc(NC(=O)C(C)(C)C)n2)n2nnnc2C)o1` [Compound 59]: 2.95; `CCCCCC(=O)Nc1nc(CON=C(c2ccc(Br)s2)n2nnnc2C)cs1` [Compound 92]: 3.92.
`Cc1ccc(C(=NOCc2csc(N)n2)n2nnnc2C)o1` [Compound 58] displayed a LogP of 1.47.
As to `Cc1ccc(C(=NOCc2csc(NC(=O)C3CC3)n2)n2nnnc2C)s1` [Compound 119], the LogP turned out to be 2.84.
Still for that read-out and setting: in the case of `COCCOC(=O)Nc1nc(CON=C(c2ccc(Cl)s2)n2nnnc2C)cs1` [Compound 112] it was 3.05.
Same read-out and setting: in the case of `Cc1nnnn1C(=NOCc1csc(NC(=O)C(C)C)n1)c1ccsc1Cl` [Compound 12] it was 2.86; in that of `Cc1nnnn1C(=NOCc1csc(NC(=O)c2ccccc2)n1)c1ccsc1` [Compound 35], 2.93; in that of `Cc1nnnn1C(=NOCc1csc(NC(=O)CCc2ccccc2)n1)c1ccsc1` [Compound 33], 3.14.
On the same count and under the same terms, in the case of `Cc1nnnn1C(=NOCc1csc(NC(=O)C2CCCCC2)n1)c1ccsc1Cl` [Compound 8] it was 4.48; in that of `Cc1nnnn1C(=NOCc1csc(NC(=O)C(C)(C)C)n1)c1ccc(Br)s1` [Compound 87], 3.74; in that of `Cc1ccc(C(=NOCc2cccc(NC(=O)NCCc3ccccc3)n2)n2nnnc2C)s1` [Compound 128], 3.06.
Regarding `CCCCCCCCC(=O)Nc1nc(CON=C(c2ccc(-c3ccc(Cl)c(Cl)c3)o2)n2nnnc2C)cs1` [Compound 83], the LogP was 5.85.
In turn, `C=CCC(=O)Nc1nc(CON=C(c2ccsc2)n2nnnc2C)cs1` [Compound 40] registered a LogP of 2.51.
Still for that read-out and setting: next, `Cc1nnnn1C(=NOCCc1csc(NC(=O)C(C)(C)C)n1)c1ccsc1` [Compound 51]: 3.19; `COCCOC(=O)Nc1cccc(CON=C(c2ccsc2Cl)n2nnnc2C)n1` [Compound 17]: 2.66.
Compound `Cc1nnnn1C(=NOCCc1csc(N)n1)c1ccsc1` [Compound 50] came in with a LogP of 1.16.
On the same count and under the same terms, next, `CCCC(=O)Nc1nc(CON=C(c2ccc(C)s2)n2nnnc2C)cs1` [Compound 114]: 2.88; `Cc1nnnn1C(=NOCc1csc(NC(=O)NC2CCCCC2)n1)c1ccsc1` [Compound 25]: 2.92; `Cc1nnnn1C(=NOCc1csc(N)n1)c1ccc(-c2ccc(Cl)c(Cl)c2)o1` [Compound 81]: 2.83.
Still for that read-out and setting: in the case of `CCCCCC(=O)Nc1nc(CON=C(c2ccc(Cl)s2)n2nnnc2C)cs1` [Compound 106] it was 4.12; in that of `CCCC(=O)Nc1nc(CON=C(c2ccc(-c3ccccc3)s2)n2nnnc2C)cs1` [Compound 56], 3.87.
Same read-out and setting: in the case of `CCCCCOC(=O)Nc1nc(CON=C(c2csc(-c3ccccc3)n2)c2nnnn2C)cs1` [Compound 167] it was 4.29.
With `Cc1nnnn1C(=NOCc1csc(NC(=O)C2CC2)n1)c1ccc(Cl)s1` [Compound 101], the LogP came to 3.
With `Cc1nnnn1C(=NOCc1csc(NC(=O)CCc2ccccc2)n1)c1ccsc1Cl` [Compound 9], the LogP stood at 3.45.
Still for that read-out and setting: next, `Cn1nnnc1C(=NOCc1csc(NC(=O)C(C)(C)C)n1)c1csc(-c2ccccc2)n1` [Compound 170]: 3.62; `Cc1nnnn1C(=NOCc1csc(N)n1)c1ccc(Cl)s1` [Compound 100]: 2.02; `Cc1nnnn1C(=NOCc1csc(NC(=O)c2ccccc2)n1)c1ccc(Br)s1` [Compound 91]: 3.61.
The same measure, in the same setting: next, `CCCCCC(=O)Nc1nc(CON=C(c2csc(-c3ccccc3)n2)c2nnnn2C)cs1` [Compound 171]: 3.94.
The compound `Cc1nnnn1C(=NOCc1csc(NC(=O)CCCc2ccccc2)n1)c1ccc(Cl)s1` [Compound 107] displayed a LogP of 4.12.
Still for that read-out and setting: in the case of `COCCOCC(=O)Nc1nc(CON=C(c2ccc(C)o2)n2nnnc2C)cs1` [Compound 70] it was 2.23; in that of `CCCCCCCCC(=O)Nc1nc(CON=C(c2ccsc2Cl)n2nnnc2C)cs1` [Compound 11], 4.77.
On the same count and under the same terms, in the case of `Cc1nnnn1C(=NOCc1csc(NC(=O)OCc2ccccc2)n1)c1ccc(Cl)s1` [Compound 109] it was 3.93; in that of `CCCCCC(=O)Nc1nc(CON=C(c2ccc(C)s2)n2nnnc2C)cs1` [Compound 120], 3.76; in that of `Cc1ccc(C(=NOCc2csc(NC(=O)C(C)(C)C)n2)n2nnnc2C)s1` [Compound 115], 3.42.
On to `Cc1nnnn1C(=NOCc1csc(NC(=O)Cc2ccccc2)n1)c1ccc(-c2ccccc2)s1` [Compound 54], for which the LogP stood at 4.08.
`Cc1nnnn1C(=NOCc1csc(NC(=O)OCCc2ccccc2)n1)c1ccc(Cl)s1` [Compound 110]: the LogP is listed as 4.24.
Same read-out and setting: next, `COCCOC(=O)Nc1cccc(CON=C(c2ccc(C)o2)n2nnnc2C)n1` [Compound 73]: 2.53; `CCCCCOC(=O)Nc1cccc(CON=C(c2ccc(C)o2)n2nnnc2C)n1` [Compound 74]: 4.04.
`Cn1nnnc1/C(=N/OCc1cccc(N2C(=O)c3ccccc3C2=O)n1)c1csc(-c2ccccc2)n1` [Compound 173, O-(2-Phtalimidopyridin-6-yl)methyl-(2-phenyl-1,3-thiazol-4-yl)-(1-methyitetrazol-5-yl)methanone oxime]: the chromatographic logP is 3.46.
As to `Cc1nnnn1C(=NOCc1csc(NC(=S)NCCc2ccccc2)n1)c1ccsc1` [Compound 47], the LogP came out at 3.65.
Still for that read-out and setting: next, `Cc1nnnn1C(=NOCc1csc(NC(=O)C2CC2)n1)c1cc(-c2ccccc2)c(Cl)s1` [Compound 77]: 4.03; `Cn1nnnc1C(=NOCc1csc(NC(=O)c2ccccc2)n1)c1csc(-c2ccccc2)n1` [Compound 169]: 3.62; `Cc1nnnn1C(=NOCc1csc(NC(=O)NC2CCCC2)n1)c1ccsc1` [Compound 28]: 2.65.
Still for that read-out and setting: next, `Cc1nnnn1C(=NOCc1csc(NC(=O)C2CC2)n1)c1ccc(-c2ccccc2)s1` [Compound 55]: 3.7; `Cn1nnnc1C(=NOCc1csc(NC(=O)OCCc2ccccc2)n1)c1csc(-c2ccccc2)n1` [Compound 166]: 4.06.
`COCCOC(=O)Nc1nc(CON=C(c2ccc(C)o2)n2nnnc2C)cs1` [Compound 71]: the LogP is listed as 2.37.
The same measure, in the same setting: in the case of `CCCCCC(=O)Nc1nc(CON=C(c2ccc(-c3ccc(Cl)c(Cl)c3)o2)n2nnnc2C)cs1` [Compound 85] it was 4.78; in that of `Cc1nnnn1C(=NOCc1csc(NC(=O)C2CCCCC2)n1)c1ccsc1` [Compound 29], 3.32.
On the same count and under the same terms, next, `Cn1nnnc1C(=NOCc1cccc(NC(=O)Cc2ccccc2)n1)c1csc(-c2ccccc2)n1` [Compound 175]: 3.72.
Same read-out and setting: next, `Cc1nnnn1C(=NOCc1csc(NC(=O)NCCc2ccccc2)n1)c1ccsc1` [Compound 24]: 2.86; `Cn1nnnc1C(=NOCc1csc(NC(=O)C2CC2)n1)c1csc(-c2ccccc2)n1` [Compound 168]: 3.85.
Compound `Cc1ccc(C(=NOCc2csc(NC(=O)CCc3ccccc3)n2)n2nnnc2C)o1` [Compound 61] displayed a LogP of 3.15.
Still for that read-out and setting: next, `COCCOCC(=O)Nc1nc(CON=C(c2ccc(Br)s2)n2nnnc2C)cs1` [Compound 98]: 2.94; `C=CCNC(=O)Nc1nc(CON=C(c2ccsc2)n2nnnc2C)cs1` [Compound 27]: 2.22.
The same measure, in the same setting: next, `Cc1ccc(C(=NOCc2csc(NC(=O)CCc3ccccc3)n2)n2nnnc2C)s1` [Compound 122]: 3.54.
Take `COCCOCC(=O)Nc1cccc(CON=C(c2ccsc2Cl)n2nnnc2C)n1` [Compound 15]: the LogP was found to be 2.61.
Still for that read-out and setting: next, `Cc1nnnn1C(=NOCc1csc(NC(=O)NCc2ccccc2)n1)c1ccc(Cl)s1` [Compound 105]: 3.32; `Cc1ccc(C(=NOCc2csc(NC(=O)c3ccccc3)n2)n2nnnc2C)o1` [Compound 63]: 2.96; `Cc1nnnn1C(=NOCc1cccc(NC(=O)C(C)(C)C)n1)c1ccsc1` [Compound 37]: 3.
For the compound `Cc1nnnn1C(=NOCc1csc(NC(=O)OCCc2ccccc2)n1)c1ccsc1` [Compound 44], the LogP was determined as 3.46.
The same measure, in the same setting: next, `Cc1nnnn1C(=NOCc1csc(N)n1)c1cc(-c2ccccc2)c(Cl)s1` [Compound 76]: 2.86.
